Test results reported in PubChem BioAssay (NCI).
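Method: 48-hour compound exposure of cells in 96-well plates, five concentrations, linear interpolation of endpoints. At the GI50, growth is halved. The concentration for full growth arrest is given as TGI.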

Experiments:
Assay in all cases: NCI-60 cell line screen, 48 h
A498 renal = system: A498 renal
A549 NSCLC = system: A549 NSCLC
ACHN renal = system: ACHN renal
BT-549 breast = system: BT-549 breast
CAKI-1 renal = system: CAKI-1 renal
CCRF-CEM leukemia = system: CCRF-CEM leukemia
COLO 205 colon = system: COLO 205 colon
DU-145 prostate = system: DU-145 prostate
EKVX NSCLC = system: EKVX NSCLC
HCC-2998 colon = system: HCC-2998 colon
HCT-116 colon = system: HCT-116 colon
HCT-15 colon = system: HCT-15 colon
HL-60(TB) leukemia = system: HL-60(TB) leukemia
HOP-62 NSCLC = system: HOP-62 NSCLC
HOP-92 NSCLC = system: HOP-92 NSCLC
HS 578T breast = system: HS 578T breast
HT29 colon = system: HT29 colon
IGROV1 ovarian = system: IGROV1 ovarian
K-562 leukemia = system: K-562 leukemia
KM12 colon = system: KM12 colon
LOX IMVI melanoma = system: LOX IMVI melanoma
M14 melanoma = system: M14 melanoma
MALME-3M melanoma = system: MALME-3M melanoma
MCF7 breast = system: MCF7 breast
MDA-MB-231 breast = system: MDA-MB-231 breast
MDA-MB-435 = system: MDA-MB-435
MOLT-4 leukemia = system: MOLT-4 leukemia
NCI-H226 lung = system: NCI-H226 lung
NCI-H23 lung = system: NCI-H23 lung
NCI-H460 lung = system: NCI-H460 lung
NCI-H522 lung = system: NCI-H522 lung
NCI/ADR-RES ovarian = system: NCI/ADR-RES ovarian
OVCAR-3 ovarian = system: OVCAR-3 ovarian
OVCAR-4 ovarian = system: OVCAR-4 ovarian
OVCAR-5 ovarian = system: OVCAR-5 ovarian
OVCAR-8 ovarian = system: OVCAR-8 ovarian
PC-3 prostate = system: PC-3 prostate
RPMI-8226 leukemia = system: RPMI-8226 leukemia
RXF 393 renal = system: RXF 393 renal
SF-268 CNS = system: SF-268 CNS
SF-295 CNS = system: SF-295 CNS
SF-539 CNS = system: SF-539 CNS
SK-MEL-2 melanoma = system: SK-MEL-2 melanoma
SK-MEL-28 melanoma = system: SK-MEL-28 melanoma
SK-MEL-5 melanoma = system: SK-MEL-5 melanoma
SK-OV-3 ovarian = system: SK-OV-3 ovarian
SN12C renal = system: SN12C renal
SNB-19 CNS = system: SNB-19 CNS
SNB-75 CNS = system: SNB-75 CNS
SR leukemia = system: SR leukemia
SW-620 colon = system: SW-620 colon
T-47D breast = system: T-47D breast
TK-10 renal = system: TK-10 renal
U251 CNS = system: U251 CNS
UACC-257 melanoma = system: UACC-257 melanoma
UACC-62 melanoma = system: UACC-62 melanoma
UO-31 renal = system: UO-31 renal

Nc1ccc(-n2c(=O)oc3ccc(Cl)cc3c2=O)c(Cl)c1
GI50 (A498 renal): 37.2 nM | TGI (A498 renal): 114 nM | GI50 (A549 NSCLC): 234 nM | TGI (A549 NSCLC): > 38700 nM | GI50 (ACHN renal): 169 nM | TGI (ACHN renal): 4410 nM | GI50 (BT-549 breast): 84.4 nM | TGI (BT-549 breast): 338 nM | GI50 (CAKI-1 renal): 77 nM | TGI (CAKI-1 renal): 479 nM | GI50 (CCRF-CEM leukemia): 139 nM | TGI (CCRF-CEM leukemia): 1560 nM | GI50 (COLO 205 colon): 2970 nM | TGI (COLO 205 colon): 8260 nM | GI50 (DU-145 prostate): 202 nM | TGI (DU-145 prostate): 14000 nM | GI50 (EKVX NSCLC): 213 nM | TGI (EKVX NSCLC): > 56300 nM | GI50 (HCC-2998 colon): 377 nM | TGI (HCC-2998 colon): 2650 nM | GI50 (HCT-116 colon): 108 nM | TGI (HCT-116 colon): 520 nM | GI50 (HCT-15 colon): 138 nM | TGI (HCT-15 colon): 21600 nM | GI50 (HL-60(TB) leukemia): 49.9 nM | TGI (HL-60(TB) leukemia): 267 nM | GI50 (HOP-62 NSCLC): 202 nM | TGI (HOP-62 NSCLC): 1590 nM | GI50 (HOP-92 NSCLC): 28.1 nM | TGI (HOP-92 NSCLC): 168 nM | GI50 (HS 578T breast): 81 nM | TGI (HS 578T breast): 562 nM | GI50 (HT29 colon): 1170 nM | TGI (HT29 colon): > 35300 nM | GI50 (IGROV1 ovarian): 140 nM | TGI (IGROV1 ovarian): 36700 nM | GI50 (K-562 leukemia): 108 nM | TGI (K-562 leukemia): > 100000 nM | GI50 (KM12 colon): 255 nM | TGI (KM12 colon): 908 nM | GI50 (LOX IMVI melanoma): 128 nM | TGI (LOX IMVI melanoma): 946 nM | GI50 (M14 melanoma): 104 nM | TGI (M14 melanoma): 680 nM | GI50 (MALME-3M melanoma): 83.8 nM | TGI (MALME-3M melanoma): 362 nM | GI50 (MCF7 breast): 262 nM | TGI (MCF7 breast): > 31800 nM | GI50 (MDA-MB-231 breast): 111 nM | TGI (MDA-MB-231 breast): 1680 nM | GI50 (MDA-MB-435): 113 nM | TGI (MDA-MB-435): 883 nM | GI50 (MOLT-4 leukemia): 368 nM | TGI (MOLT-4 leukemia): 2320 nM | GI50 (NCI-H226 lung): 154 nM | TGI (NCI-H226 lung): 787 nM | GI50 (NCI-H23 lung): 92.1 nM | TGI (NCI-H23 lung): 486 nM | GI50 (NCI-H460 lung): 109 nM | TGI (NCI-H460 lung): 3740 nM | GI50 (NCI-H522 lung): 74.1 nM | TGI (NCI-H522 lung): 588 nM | GI50 (NCI/ADR-RES ovarian): 172 nM | TGI (NCI/ADR-RES ovarian): 1030 nM | GI50 (OVCAR-3 ovarian): 107 nM | TGI (OVCAR-3 ovarian): 7210 nM | GI50 (OVCAR-4 ovarian): 111 nM | TGI (OVCAR-4 ovarian): > 94800 nM | GI50 (OVCAR-5 ovarian): 467 nM | TGI (OVCAR-5 ovarian): > 100000 nM | GI50 (OVCAR-8 ovarian): 147 nM | TGI (OVCAR-8 ovarian): 5530 nM | GI50 (PC-3 prostate): 264 nM | TGI (PC-3 prostate): 9590 nM | GI50 (RPMI-8226 leukemia): 55.8 nM | TGI (RPMI-8226 leukemia): 256 nM | GI50 (RXF 393 renal): 83.8 nM | TGI (RXF 393 renal): 293 nM | GI50 (SF-268 CNS): 108 nM | TGI (SF-268 CNS): 2330 nM | GI50 (SF-295 CNS): 1070 nM | TGI (SF-295 CNS): 2800 nM | GI50 (SF-539 CNS): 116 nM | TGI (SF-539 CNS): 1010 nM | GI50 (SK-MEL-2 melanoma): 207 nM | TGI (SK-MEL-2 melanoma): 807 nM | GI50 (SK-MEL-28 melanoma): 100 nM | TGI (SK-MEL-28 melanoma): 730 nM | GI50 (SK-MEL-5 melanoma): 48 nM | TGI (SK-MEL-5 melanoma): 136 nM | GI50 (SK-OV-3 ovarian): 93.4 nM | TGI (SK-OV-3 ovarian): 1600 nM | GI50 (SN12C renal): 97.1 nM | TGI (SN12C renal): 1070 nM | GI50 (SNB-19 CNS): 122 nM | TGI (SNB-19 CNS): > 100000 nM | GI50 (SNB-75 CNS): 89.4 nM | TGI (SNB-75 CNS): 410 nM | GI50 (SR leukemia): 98.7 nM | GI50 (SW-620 colon): 161 nM | TGI (SW-620 colon): 8180 nM | GI50 (T-47D breast): 67.9 nM | TGI (T-47D breast): 263 nM | GI50 (TK-10 renal): 187 nM | TGI (TK-10 renal): 20400 nM | GI50 (U251 CNS): 118 nM | TGI (U251 CNS): > 34500 nM | GI50 (UACC-257 melanoma): 74.1 nM | TGI (UACC-257 melanoma): 433 nM | GI50 (UACC-62 melanoma): 52.7 nM | TGI (UACC-62 melanoma): 220 nM | GI50 (UO-31 renal): 87.2 nM | TGI (UO-31 renal): 533 nM
